Laboratory results taken from US7375058B2, “Herbicidal mixtures based on 3-phenyluracils” (priority 2002, dated 2008).

Key:
[1] = test system: BIDPI; assay: Greenhouse post-emergence herbicidal action against BIDPI; assay type: in vivo, Bidens pilosa
Excerpt: (§1) For the post-emergence treatment, the test plants were first grown to a height of 3 to 20 cm, depending on the plant habit, and only then treated. Here, the herbicidal compositions were suspended or emulsified in water as distribution medium and sprayed using finely distributing nozzles
(§2) The respective components A and B and/or C were formulated as 10% by weight strength emulsion concentrate and introduced to the spray liquor with the amount of solvent system used for applying the active compound. In the examples, the solvent used was water.
(§3) The test period extended over 21 days. During this time, the plants were tended, and their response to the treatments with active compound was evaluated.
(§4) The evaluation for the damage caused by the chemical compositions was carried out using a scale from 0 to 100%, compared to the untreated control plants. Here, 0 means no damage and 100 means complete destruction of the plants.
(§5) In the examples below, the value E which is to be expected if the activity of the individual compounds is just additive was calculated using the method of S. R. Colby (1967) “Calculating synergistic and antagonistic responses of herbicide combinations”, Weeds 15, p. 22 ff. E=X+Y−([…]) where • X=effect in percent using active compound A at an application rate a; • Y=effect in percent using active compound B at an application rate b; • E=expected effect (in %) of A+B at application rates a+b.
(§6) If the observed effect is higher than the value E calculated according to Colby, a synergistic effect is present.

[2] = test system: AVEFA; assay: Greenhouse post-emergence herbicidal action against AVEFA; assay type: in vivo, Avena fatua
Excerpt: as §1, §2, §3, §4, §5, §6

[3] = test system: POLPE; assay: Greenhouse post-emergence herbicidal action against POLPE; assay type: in vivo, Polygonum persicaria; conditions: 21 days
Excerpt: as §1, §2, §3, §4, §5, §6

[4] = test system: ABUTH; assay: Greenhouse post-emergence herbicidal action against ABUTH; assay type: in vivo, Abutilon theophrasti; conditions: 21 days
Excerpt: as §1, §2, §3, §4, §5, §6

[5] = test system: GALAP; assay: Greenhouse post-emergence herbicidal action against GALAP; assay type: in vivo, Galium aparine; conditions: 21 days
Excerpt: as §1, §2, §3, §4, §5, §6

[6] = test system: AMARE; assay: Greenhouse post-emergence herbicidal action against AMARE; assay type: in vivo, Amaranthus retroflexus
Excerpt: as §1, §2, §3, §4, §5, §6

[7] = I.1 0.49 g/ha and/or b14.1 7.81 g/ha
[8] = I.1 0.98 g/ha and/or b14.1 15.63 g/ha
[9] = I.1 1.95 g/ha and/or b10.1 125 g/ha
[10] = I.1 3.91 g/ha and/or b10.1 250 g/ha

`CN(C)S(=O)(=O)NC(=O)c1cc(-n2c(=O)cc(C(F)(F)F)n(C)c2=O)c(F)cc1Cl` [I.1] was tested, and the “Herbicidal action against BIDPI found” value [1, 7] was 20%, the “Herbicidal action against BIDPI found” value [1, 8] was 30% and the “Herbicidal action against BIDPI found” value [1, 9] was 40%. For the same molecule, the “Herbicidal action against BIDPI found” value [1, 10] was 50%, the “Herbicidal action against AVEFA found” value ([2]; 21 days, application rate g/ha: I.1 0.98, b9.1 125) was 5% and the “Herbicidal action against AVEFA found” value ([2]; 21 days, application rate g/ha: I.1 1.95, b9.1 250) was 10%. The “Herbicidal action against AVEFA found” value [2, 9] was 10%, the “Herbicidal action against AVEFA found” value [2, 10] was 10% and the “Herbicidal action against POLPE found” value ([3]; application rate g/ha: I.1 0.49, b4.1 0.98) was 10%. For the same molecule, the “Herbicidal action against POLPE found” value ([3]; application rate g/ha: I.1 0.98, b4.1 1.95) was 25%, the “Herbicidal action against ABUTH found” value ([4]; application rate g/ha: I.1 1.95, b1.2 31.25) was 20% and the “Herbicidal action against ABUTH found” value ([4]; application rate g/ha: I.1 3.91, b1.2 62.5) was 30%. The “Herbicidal action against GALAP found” value ([5]; application rate g/ha: I.1 1.95, b1.1 62.5) was 20%, the “Herbicidal action against GALAP found” value ([5]; application rate g/ha: I.1 1.95, b1.3 + c.1 62.5 + 67.5) was 50% and the “Herbicidal action against GALAP found” value ([5]; application rate g/ha: I.1 3.91, b1.1 125) was 20%. The “Herbicidal action against GALAP found” value ([5]; application rate g/ha: I.1 3.91, b1.3 + c.1 125 + 135.9) was 60%, the “Herbicidal action against AMARE found” value [6, 7] was 60% and the “Herbicidal action against AMARE found” value [6, 8] was 60%.
